{"source": "patent US20250320213A1", "about": "“Nitrogen-Containing Heterocyclic Compounds” (Pfizer Inc., priority 2024, published 2025)", "key": {"STAT6": {"target": "T1, STAT6 (Homo sapiens, UniProt P42226)", "T1 construct": "stably transfected HaCaT keratinocyte cell line, which expresses NanoLuc luciferase reporter gene under the transcriptional control of the STAT6 responsive promoter; endogenous in cells; host or cells: HaCaT keratinocyte reporter cell line (stably transfected with a NanoLuc reporter)", "T1 sequence (P42226 1-847)": "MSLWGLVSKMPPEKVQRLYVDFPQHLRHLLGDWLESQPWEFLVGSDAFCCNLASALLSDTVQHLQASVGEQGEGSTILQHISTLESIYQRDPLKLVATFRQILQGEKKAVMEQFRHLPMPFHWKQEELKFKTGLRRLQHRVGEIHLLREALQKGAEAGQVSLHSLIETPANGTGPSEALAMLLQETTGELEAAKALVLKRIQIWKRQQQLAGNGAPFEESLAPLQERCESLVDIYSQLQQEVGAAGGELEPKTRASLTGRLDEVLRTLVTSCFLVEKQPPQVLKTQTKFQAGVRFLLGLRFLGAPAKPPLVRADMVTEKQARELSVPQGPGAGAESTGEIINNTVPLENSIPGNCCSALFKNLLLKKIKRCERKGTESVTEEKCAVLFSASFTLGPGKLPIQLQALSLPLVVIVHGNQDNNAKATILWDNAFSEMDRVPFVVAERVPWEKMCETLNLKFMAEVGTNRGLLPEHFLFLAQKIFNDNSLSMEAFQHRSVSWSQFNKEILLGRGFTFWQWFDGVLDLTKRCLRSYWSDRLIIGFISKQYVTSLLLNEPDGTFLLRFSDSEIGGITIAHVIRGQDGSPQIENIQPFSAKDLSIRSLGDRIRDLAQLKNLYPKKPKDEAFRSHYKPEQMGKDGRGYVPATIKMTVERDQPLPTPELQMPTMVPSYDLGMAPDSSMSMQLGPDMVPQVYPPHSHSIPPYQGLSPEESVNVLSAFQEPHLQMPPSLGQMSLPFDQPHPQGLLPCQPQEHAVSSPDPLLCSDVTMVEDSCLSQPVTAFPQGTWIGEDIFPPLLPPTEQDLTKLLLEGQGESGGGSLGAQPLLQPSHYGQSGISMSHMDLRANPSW", "test": "STAT6 Reporter Luciferase Assay (IL-13 stimulated HaCaT keratinocyte NanoLuc reporter cells)", "assay_type": "cell-based", "details": "IL-13 stimulated HaCaT STAT6 NanoLuc reporter cells; read-out: Reporter EC50", "procedure,_shortened": "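HaCaT cells stably carrying a NanoLuc reporter driven by the STAT6-responsive IL-13Ra2 promoter were preincubated with compounds for 2 h at 37 °C in 2% FBS medium. Cells were then stimulated with 0.12 nM IL-13 for 4 h, and luminescence was read after Nano-Glo substrate. Compounds ran as 11-point 4-fold dilutions in duplicate.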"}, "[1]": {"tested_on": "CCL17 secretion in peripheral human whole blood", "test": "Human Whole Blood (HWB) CCL17 TR-FRET Assay (IL-13 stimulated CCL17 secretion)", "assay_type": "cell-based", "details": "Homo sapiens, 48 h, human whole blood, IL-13 stimulated", "procedure,_shortened": "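Heparinized human whole blood was preincubated with compound (11-point, 3-fold series) for 2 h at 37°C, then stimulated with IL-13 (10 ng/mL final) for 48 h. Serum CCL17 was measured by TR-FRET sandwich immunoassay (665/615 nm ratio) after 16 h at room temperature, giving IC50.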"}}, "data": [{"compound": "COc1ccc2c(n1)CN(C(=O)c1ccc(N3CCc4c(c(C(=O)NCc5ccc(NC(=O)N(C)C)cc5)nn4C(C)C)C3)nc1)CC2", "note": "[Example 443, N-(4-(3,3-dimethylureido)benzyl)-1-isopropyl-5-(5-(2-methoxy-5,6,7,8-tetrahydro-1,7-naphthyridine-7-carbonyl)pyridin-2-yl)-4,5,6,7-tetrahydro-1H-pyrazolo[4,3-c]pyridine-3-carboxamide]", "values": [{"measurement": "EC50", "setting": "STAT6", "result": 11, "unit": "nM"}, {"measurement": "IC50", "setting": "[1]", "result": 878, "unit": "nM"}]}, {"compound": "CC(C)n1nc(C(=O)NCc2ccc(N)cc2)c2c1[C@@H](C)CN(c1ccc(C(=O)N(C)C)cn1)C2", "note": "[Example 450, (S)-N-(4-aminobenzyl)-5-(5-(dimethylcarbamoyl)pyridin-2-yl)-1-isopropyl-7-methyl-4,5,6,7-tetrahydro-1H-pyrazolo[4,3-c]pyridine-3-carboxamide]", "values": [{"measurement": "EC50", "setting": "STAT6", "result": 21, "unit": "nM"}, {"measurement": "IC50", "setting": "[1]", "result": 93, "unit": "nM"}]}, {"compound": "CC(C)n1nc(C(=O)NCc2ccc(-c3ncc[nH]3)cc2)c2c1C[C@H](C)N(c1ncc(C(=O)N(C)C)cn1)C2", "note": "[Example 451, (S)-N-(4-(1H-imidazol-2-yl)benzyl)-5-(5-(dimethylcarbamoyl)pyrimidin-2-yl)-1-isopropyl-6-methyl-4,5,6,7-tetrahydro-1H-pyrazolo[4,3-c]pyridine-3-carboxamide]", "values": [{"measurement": "EC50", "setting": "STAT6", "result": 3, "unit": "nM"}, {"measurement": "IC50", "setting": "[1]", "result": 47, "unit": "nM"}]}, {"compound": "CC(C)n1nc(C(=O)NCc2ccc(NC(=O)N(C)C)cc2)c2c1C[C@H](C)N(c1ncc(C(=O)N(C)C)cn1)C2", "note": "[Example 452, (S)-5-(5-(dimethylcarbamoyl)pyrimidin-2-yl)-N-(4-(3,3-dimethylureido)benzyl)-1-isopropyl-6-methyl-4,5,6,7-tetrahydro-1H-pyrazolo[4,3-c]pyridine-3-carboxamide]", "values": [{"measurement": "EC50", "setting": "STAT6", "result": 3, "unit": "nM"}, {"measurement": "IC50", "setting": "[1]", "result": 16, "unit": "nM"}]}, {"compound": "CNC(=O)Nc1ccc(CNC(=O)c2nn(C(C)C)c3c2CN(c2ccc(C(N)=O)cn2)CC3)cc1", "note": "[Example 453, 5-(5-carbamoylpyridin-2-yl)-1-isopropyl-N-(4-(3-methylureido)benzyl)-4,5,6,7-tetrahydro-1H-pyrazolo[4,3-c]pyridine-3-carboxamide]", "values": [{"measurement": "EC50", "setting": "STAT6", "result": 2150, "unit": "nM"}, {"measurement": "IC50", "setting": "[1]", "result": 12100, "unit": "nM"}]}, {"compound": "CNC(=O)Nc1ccc(CNC(=O)c2nn(C(C)C)c3c2CN(c2ccc(C(=O)NC)cn2)CC3)cc1", "note": "[Example 454, 1-isopropyl-5-(5-(methylcarbamoyl)pyridin-2-yl)-N-(4-(3-methylureido)benzyl)-4,5,6,7-tetrahydro-1H-pyrazolo[4,3-c]pyridine-3-carboxamide]", "values": [{"measurement": "EC50", "setting": "STAT6", "result": 128, "unit": "nM"}, {"measurement": "IC50", "setting": "[1]", "result": 720, "unit": "nM"}]}, {"compound": "CNC(=O)c1ccc(N2CCc3c(c(C(=O)NCc4ccc(NC(N)=O)cc4)nn3C(C)C)C2)nc1", "note": "[Example 456, 1-isopropyl-5-(5-(methylcarbamoyl)pyridin-2-yl)-N-(4-ureidobenzyl)-4,5,6,7-tetrahydro-1H-pyrazolo[4,3-c]pyridine-3-carboxamide]", "values": [{"measurement": "EC50", "setting": "STAT6", "result": 742, "unit": "nM"}, {"measurement": "IC50", "setting": "[1]", "result": 579, "unit": "nM"}]}, {"compound": "CC(C)n1nc(C(=O)NCc2ccc(NC(N)=O)cc2)c2c1CCN(c1ccc(C(N)=O)cn1)C2", "note": "[Example 457, 5-(5-carbamoylpyridin-2-yl)-1-isopropyl-N-(4-ureidobenzyl)-4,5,6,7-tetrahydro-1H-pyrazolo[4,3-c]pyridine-3-carboxamide]", "values": [{"measurement": "EC50", "setting": "STAT6", "result": 5960, "unit": "nM"}, {"measurement": "IC50", "setting": "[1]", "result": 5010, "unit": "nM"}]}, {"compound": "CC(C)n1nc(C(=O)Nc2cccc(C(N)=O)c2F)c2c1[C@@H](C)CN(c1ccc(C(=O)N(C)C)cn1)C2", "note": "[Example 458, (S)-N-(3-carbamoyl-2-fluorophenyl)-5-(5-(dimethylcarbamoyl)pyridin-2-yl)-1-isopropyl-7-methyl-4,5,6,7-tetrahydro-1H-pyrazolo[4,3-c]pyridine-3-carboxamide]", "values": [{"measurement": "EC50", "setting": "STAT6", "result": 173, "unit": "nM"}, {"measurement": "IC50", "setting": "[1]", "result": "> 7650", "unit": "nM"}]}, {"compound": "Cc1nn(C)c(=O)n1-c1ccc(N2Cc3c(C(=O)NCc4ccc(NC(=O)N(C)C)cc4)nn(C(C)C)c3[C@@H](C)C2)nc1", "note": "[Example 466, (S)-5-(5-(1,3-dimethyl-5-oxo-1,5-dihydro-4H-1,2,4-triazol-4-yl)pyridin-2-yl)-N-(4-(3,3-dimethylureido)benzyl)-1-isopropyl-7-methyl-4,5,6,7-tetrahydro-1H-pyrazolo[4,3-c]pyridine-3-carboxamide]", "values": [{"measurement": "EC50", "setting": "STAT6", "result": 2, "unit": "nM"}, {"measurement": "IC50", "setting": "[1]", "result": 18, "unit": "nM"}]}, {"compound": "CC(C)n1nc(C(=O)NCc2ccc(NC(=O)N3CCN(C)CC3)cc2)c2c1[C@@H](C)CN(c1ccc(C(=O)N(C)C)cn1)C2", "note": "[Example 470, (S)-5-(5-(dimethylcarbamoyl)pyridin-2-yl)-1-isopropyl-7-methyl-N-(4-(4-methylpiperazine-1-carboxamido)benzyl)-4,5,6,7-tetrahydro-1H-pyrazolo[4,3-c]pyridine-3-carboxamide]", "values": [{"measurement": "EC50", "setting": "STAT6", "result": 1, "unit": "nM"}, {"measurement": "IC50", "setting": "[1]", "result": 5, "unit": "nM"}]}, {"compound": "Cc1nn(C)c(=O)n1-c1ccc(CNC(=O)c2nn(C(C)C)c3c2CN(c2ccc(C(=O)N(C)C)cn2)C[C@@H]3C)cc1", "note": "[Example 471, (S)-N-(4-(1,3-dimethyl-5-oxo-1,5-dihydro-4H-1,2,4-triazol-4-yl)benzyl)-5-(5-(dimethylcarbamoyl)pyridin-2-yl)-1-isopropyl-7-methyl-4,5,6,7-tetrahydro-1H-pyrazolo[4,3-c]pyridine-3-carboxamide]", "values": [{"measurement": "EC50", "setting": "STAT6", "result": 432, "unit": "nM"}, {"measurement": "IC50", "setting": "[1]", "result": 3290, "unit": "nM"}]}, {"compound": "CC(C)n1nc(C(=O)NCc2ccc(NC(=O)N(C)C)cc2)c2c1C(O)CN(c1ccc(C(=O)N(C)C)cn1)C2", "note": "(centres unmarked) [Example 473, 5-(5-(dimethylcarbamoyl)pyridin-2-yl)-N-(4-(3,3-dimethylureido)benzyl)-7-hydroxy-1-isopropyl-4,5,6,7-tetrahydro-1H-pyrazolo[4,3-c]pyridine-3-carboxamide]", "values": [{"measurement": "EC50", "setting": "STAT6", "result": 0.3, "unit": "nM"}, {"measurement": "IC50", "setting": "[1]", "result": 5, "unit": "nM"}]}, {"compound": "CCn1nc(C(=O)NCc2ccc(NC(=O)NC)cc2)c2c1[C@@H](C)CN(c1ccc(N3CCCC3=O)cn1)C2", "note": "[Example 476, (S)-1-ethyl-7-methyl-N-(4-(3-methylureido)benzyl)-5-(5-(2-oxopyrrolidin-1-yl)pyridin-2-yl)-4,5,6,7-tetrahydro-1H-pyrazolo[4,3-c]pyridine-3-carboxamide]", "values": [{"measurement": "EC50", "setting": "STAT6", "result": 1, "unit": "nM"}, {"measurement": "IC50", "setting": "[1]", "result": 9, "unit": "nM"}]}, {"compound": "CCn1nc(C(=O)NCc2ccc(NC(=O)N(C)C)cc2)c2c1[C@@H](C)CN(c1ccc(C(=O)N3Cc4cccnc4C3)cn1)C2", "note": "[Example 477, (S)-5-(5-(6,7-dihydro-5H-pyrrolo[3,4-b]pyridine-6-carbonyl)pyridin-2-yl)-N-(4-(3,3-dimethylureido)benzyl)-1-ethyl-7-methyl-4,5,6,7-tetrahydro-1H-pyrazolo[4,3-c]pyridine-3-carboxamide]", "values": [{"measurement": "EC50", "setting": "STAT6", "result": 0.4, "unit": "nM"}, {"measurement": "IC50", "setting": "[1]", "result": 4, "unit": "nM"}]}, {"compound": "CNC(=O)c1ccc(CNC(=O)c2nn(C(C)C)c3c2CN(c2ccc(N4CCCC4=O)cn2)C[C@@H]3C)cc1", "note": "[Example 478, (S)-1-isopropyl-7-methyl-N-(4-(methylcarbamoyl)benzyl)-5-(5-(2-oxopyrrolidin-1-yl)pyridin-2-yl)-4,5,6,7-tetrahydro-1H-pyrazolo[4,3-c]pyridine-3-carboxamide]", "values": [{"measurement": "EC50", "setting": "STAT6", "result": 2, "unit": "nM"}, {"measurement": "IC50", "setting": "[1]", "result": 17, "unit": "nM"}]}, {"compound": "CC(C)n1nc(C(=O)NCc2ccc(C(N)=O)cc2)c2c1[C@@H](C)CN(c1ccc(N3CCCC3=O)cn1)C2", "note": "[Example 479, (S)-N-(4-carbamoylbenzyl)-1-isopropyl-7-methyl-5-(5-(2-oxopyrrolidin-1-yl)pyridin-2-yl)-4,5,6,7-tetrahydro-1H-pyrazolo[4,3-c]pyridine-3-carboxamide]", "values": [{"measurement": "EC50", "setting": "STAT6", "result": 4, "unit": "nM"}, {"measurement": "IC50", "setting": "[1]", "result": 15, "unit": "nM"}]}, {"compound": "CNC(=O)Nc1ccc(CNC(=O)c2nn(C(C)C)c3c2CN(c2ccc(N4CCCC4=O)cn2)C[C@@H]3C)cc1", "note": "[Example 480, (S)-1-isopropyl-7-methyl-N-(4-(3-methylureido)benzyl)-5-(5-(2-oxopyrrolidin-1-yl)pyridin-2-yl)-4,5,6,7-tetrahydro-1H-pyrazolo[4,3-c]pyridine-3-carboxamide]", "values": [{"measurement": "EC50", "setting": "STAT6", "result": 0.3, "unit": "nM"}, {"measurement": "IC50", "setting": "[1]", "result": 3, "unit": "nM"}]}, {"compound": "CNC(=O)Nc1ccc(CNC(=O)c2nn(C(C)C)c3c2CN(c2ncc(N4CCCC4=O)cn2)C[C@@H]3C)cc1", "note": "[Example 481, (S)-1-isopropyl-7-methyl-N-(4-(3-methylureido)benzyl)-5-(5-(2-oxopyrrolidin-1-yl)pyrimidin-2-yl)-4,5,6,7-tetrahydro-1H-pyrazolo[4,3-c]pyridine-3-carboxamide]", "values": [{"measurement": "EC50", "setting": "STAT6", "result": 1, "unit": "nM"}, {"measurement": "IC50", "setting": "[1]", "result": 14, "unit": "nM"}]}]}
